Experimental findings from US9617257B2, “Fused pyridine derivatives useful as c-Met tyrosine kinase inhibitors” (BETA PHARMACEUTICALS CO., LTD., priority 2012, dated 2017) are described below.

One test deals with T1, Met (h) (Homo sapiens, UniProt P08581).
T1 construct: purchased Millipore
The experiment in a line: Met (h) kinase assay (33P-ATP filter assay, performed by Millipore). Format: biochemical. To be noted: 0.2 μM test compound; remaining activity relative to DMSO control set to 100%; duplicate. How it is done: (specific activity approx. 500 cpm/pmol, concentration as required) and 0.2 μM test compound. The reaction is initiated by the addition of the MgATP mix. After incubation for 40 minutes at room temperature, the reaction is stopped by the addition of 3% phosphoric acid solution. 10 μL of the reaction is then spotted onto a P30 filtermat and washed three times for 5 minutes in 75 mM phosphoric acid and once in methanol prior to drying and scintillation counting. This assay is performed by Millipore. The experiment is carried out in duplicate. The value for the control sample (DMSO) was set to 100%, and the values for the compound-treated samples were expressed as activity relative to the control sample.

A further test concerns U87-MG cells. The experiment in a line: Cellular proliferation analysis (MTS assay), U87-MG. The class given is cell-based. To be noted: Homo sapiens, U-87 MG, 168 h, read-out: IC50 U87-MG. The procedure:
(§1) Cell proliferation analysis was conducted by the MTS assay protocol. Briefly, U87-MG cells will be cultured in EMEM medium, EBC-1 cells and SNU-5 cells will be cultured in MEM medium, MKN45 cells, NCI-H1975 cells and NCI-H1993 cells will be cultured in RPMI1640 medium, A549 cells will be cultured in McCoy's 5a medium. […] All culture media will be purchased from GIBCO (USA). The cells will be harvested respectively during the logarithmic growth period and counted with hemocytometer. […] Add […] cell suspensions to 96-well plates (triplicates for each cell concentration), the final cell densities are 2×10^4 or 1×10^4 or 5×10^3 cells/well. The density of 5×10^3 cells/well will be used for our first test. The appropriate cell density will be determined and adjusted according to the results of our first test. The next day, dissolve the test article or positive drugs with DMSO or PBS as stock solution. Dispense 2 μl drug solution in 1 ml culture media. Add 200 μl drug media into 96-well plates (triplicate for each drug concentration) after discard the old media. The final concentration of drug will be 0, 0.03, 0.1, 0.3, 1, 3, 10, 30 or 100 μM. The plates will be cultured for another 7 days, then measured by means of MTS assay. Prepare MTS/PMS solution immediately prior to use, pipet 20 μl of the mixture into each well of the 96 well assay plate containing 100 μl culture media. (The final reaction volume is 120 μl). Incubate the plate for 1-4 hours at 37° C. in a humidified, 5% CO2 atmosphere. Record the absorbance at 490 nm using Victor X5 microplate spectrophotometer.
Background: Tetrazolium assays rely on reduction of a dye to a coloured formazan, in cell work by metabolically active cells.

A further test relates to EBC-1 cells. The test can be described thus: Cellular proliferation analysis (MTS assay), EBC-1. Format: cell-based. The following applies: Homo sapiens, read-out: IC50 EBC-1. How it is done: as §1
A further test concerns MKN45 cells. The experiment in a line: Cellular proliferation analysis (MTS assay), MKN45. To be noted: Homo sapiens, MKN-45, 168 h, read-out: IC50 MKN45. The class given is cell-based. How it is done:
as §1

A further test relates to NCI-H1975 cells. The test can be described thus: Cellular proliferation analysis (MTS assay), NCI-H1975. Format: cell-based. To be noted: Homo sapiens, read-out: IC50 NCI-H1975. How it is done: as §1
A further test deals with A549 cells. The test can be described thus: Cellular proliferation analysis (MTS assay), A549. Format: cell-based. The following applies: Homo sapiens, read-out: IC50 A549. The procedure: as §1
For a further test, the system named is NCI-H1993 cells. The test can be described thus: Cellular proliferation analysis (MTS assay), NCI-H1993. The class given is cell-based. The following applies: Homo sapiens, read-out: IC50 NCI-H1993. The procedure:
as §1

A further test deals with SNU-5 cells. The experiment in a line: Cellular proliferation analysis (MTS assay), SNU-5. The class given is cell-based. To be noted: Homo sapiens, SNU-5, 168 h, read-out: IC50 SNU5. How it is done: as §1
The test system of a further test is A549 tumors. The following applies: oral gavage, vs vehicle control. How it is done: (§2) Human non small cell lung cancer cells A549, human gastric cancer cells MKN45, and human lung squamous cell carcinoma cells EBC-1 are expanded in culture, harvested, and injected subcutaneously onto the right flank of BALB/c nude mice. Testing compound is prepared in an appropriate vehicle and is administered by oral gavage when tumors are established (6-10 days after implant). Tumor response is determined by tumor volume measurement performed twice a week during the course of treatment. Tumor volume inhibition (% growth inhibition) is calculated by comparing treated groups to vehicle control group. Body weight is taken as a general measurement of toxicity.

The test system of the next test is EBC-1 tumors. The following applies: oral gavage, vs vehicle control. The procedure:
as §2

The test system of the next test is MKN45 tumors. To be noted: oral gavage, vs vehicle control. How it is done: as §2
Where [1] appears, read: 168 h, EBC-1 cells, 7 days, MTS.
The mark [2] stands for this setting: 168 h, NCI-H1975 cells, 7 days, MTS.
Setting [3] is: 168 h, NCI-H1993 cells, 7 days, MTS.

Like-named read-outs stand apart in the source and are kept apart here.

T1 sequence (P08581 25-1390): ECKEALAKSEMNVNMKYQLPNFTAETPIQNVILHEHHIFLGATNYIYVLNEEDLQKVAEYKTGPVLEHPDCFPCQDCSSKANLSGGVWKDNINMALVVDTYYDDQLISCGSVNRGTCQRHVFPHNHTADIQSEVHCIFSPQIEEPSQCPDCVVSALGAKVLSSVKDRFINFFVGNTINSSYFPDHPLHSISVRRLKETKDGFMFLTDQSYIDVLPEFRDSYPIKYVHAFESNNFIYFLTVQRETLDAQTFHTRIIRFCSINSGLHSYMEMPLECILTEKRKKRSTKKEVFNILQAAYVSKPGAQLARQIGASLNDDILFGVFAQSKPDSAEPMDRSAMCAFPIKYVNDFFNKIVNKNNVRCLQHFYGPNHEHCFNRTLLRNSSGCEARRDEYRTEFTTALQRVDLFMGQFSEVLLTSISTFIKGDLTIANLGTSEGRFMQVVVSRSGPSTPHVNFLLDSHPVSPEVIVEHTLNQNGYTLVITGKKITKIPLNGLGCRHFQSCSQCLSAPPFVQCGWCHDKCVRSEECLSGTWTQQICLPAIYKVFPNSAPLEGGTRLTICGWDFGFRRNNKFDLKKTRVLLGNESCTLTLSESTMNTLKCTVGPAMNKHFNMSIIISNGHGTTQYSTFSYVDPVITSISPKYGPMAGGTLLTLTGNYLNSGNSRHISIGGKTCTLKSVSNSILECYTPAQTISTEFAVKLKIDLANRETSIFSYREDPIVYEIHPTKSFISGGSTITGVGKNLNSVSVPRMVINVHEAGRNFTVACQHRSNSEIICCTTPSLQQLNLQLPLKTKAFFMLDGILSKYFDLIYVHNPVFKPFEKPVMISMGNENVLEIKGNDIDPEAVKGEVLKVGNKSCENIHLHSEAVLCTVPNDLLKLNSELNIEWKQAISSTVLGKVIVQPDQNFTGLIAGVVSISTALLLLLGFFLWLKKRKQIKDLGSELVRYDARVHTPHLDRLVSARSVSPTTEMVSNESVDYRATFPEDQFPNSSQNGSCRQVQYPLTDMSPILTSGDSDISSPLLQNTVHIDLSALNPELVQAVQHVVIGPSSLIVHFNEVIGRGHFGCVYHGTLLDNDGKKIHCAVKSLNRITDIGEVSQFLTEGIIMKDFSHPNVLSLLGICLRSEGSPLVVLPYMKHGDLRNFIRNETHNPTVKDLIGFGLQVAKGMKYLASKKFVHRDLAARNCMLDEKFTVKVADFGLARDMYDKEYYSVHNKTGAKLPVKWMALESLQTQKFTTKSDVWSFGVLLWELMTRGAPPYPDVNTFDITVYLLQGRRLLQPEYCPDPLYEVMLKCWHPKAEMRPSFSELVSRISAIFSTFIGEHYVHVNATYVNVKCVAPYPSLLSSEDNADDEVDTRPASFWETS

In general, IC50 refers to the concentration that gives 50% inhibition. `O=C(Nc1ccc(Oc2ccnc3c2OCCN3)c(F)c1)c1c[nH]cc(-c2ccc(F)cc2)c1=O` [Example 3, N-(4-(3,4-dihydro-2H-pyrido[3,2-b][1,4]oxazin-8-yloxy)-3-fluorophenyl)-5-(4-fluorophenyl)-4-oxo-1,4-dihydropyridine-3-carboxamide]: the “Activity (control) %” value at Met (h) came out at 6%. For the same compound, the half-inhibitory concentration (IC50) with U87-MG cells was found to be 6.3 µM; in the test on EBC-1 cells (EBC-1, 168 h) it was 0.4 µM; with MKN45 cells, 6.2 µM; in the test on NCI-H1975 cells (NCI-H1975, 168 h) it was 14.6 µM; with A549 cells (A549, 168 h), 20.1 µM; in the test on NCI-H1993 cells (NCI-H1993, 168 h) it was 1.5 µM. Also, the IC50 with SNU-5 cells came out at 3.1 µM.
Regarding `Cc1c(C(=O)Nc2ccc(Oc3ccnc4c3OCCN4)c(F)c2)c(=O)n(-c2ccccc2)n1C` [Example 20, N-(4-(3,4-dihydro-2H-pyrido[3,2-b][1,4]oxazin-8-yloxy)-3-fluorophenyl)-1,5-dimethyl-3-oxo-2-phenyl-2,3-dihydro-1H-pyrazole-4-carboxamide], the “Activity (control) %” value at Met (h) was found to be 45%.
For `O=C(Nc1ccc(Oc2ccnc3c2CCN3)c(F)c1)c1c[nH]cc(-c2ccc(F)cc2)c1=O` [Example 1, N-(4-(2,3-dihydro-1H-pyrrolo[2,3-b]pyridin-4-yloxy)-3-fluorophenyl)-5-(4-fluorophenyl)-4-oxo-1,4-dihydropyridine-3-carboxamide], the “Activity (control) %” value on Met (h) was determined as 1%. Moreover, the IC50 with U87-MG cells was determined as 3.4 µM; in the test on EBC-1 cells (EBC-1, 168 h) it was 0.06 µM; in the test on MKN45 cells, 0.4 µM; with NCI-H1975 cells (NCI-H1975, 168 h), 13 µM; in the test with A549 cells (A549, 168 h), 15.4 µM; with NCI-H1993 cells (NCI-H1993, 168 h), 0.4 µM. In addition, the IC50 in the test with SNU-5 cells is 0.9 µM. Further, the results for the “growth inhibition of A549 tumors” value in the test on A549 tumors (60 mg/kg (qd x24)) and in the test on A549 tumors (120 mg/kg (qd x24)) were 76.6% and 96.7%, respectively. The “growth inhibition of EBC-1 tumors” value in the test on EBC-1 tumors (40 mg/kg (qd x17)) is on record as 56.5%; in the test on EBC-1 tumors (80 mg/kg (qd x17)), 100%. Also, the “growth inhibition of MKN45 tumors” value in the test on MKN45 tumors (60 mg/kg (qd x22)) stood at 38.9%; in the test with MKN45 tumors (120 mg/kg (qd x22)), 71.9%.
On to `O=C(Nc1ccc(F)cc1)C1(C(=O)Nc2ccc(Oc3ccnc4c3CCN4)c(F)c2)CC1` [Example 12], for which the “Activity (control) %” value on Met (h) was determined as 15%. The half-inhibitory concentration (IC50) was 3.8 µM in the test with U87-MG cells (U87-MG cells, 7 days, MTS); 11.1 µM with EBC-1 cells (setting [1]); 11.5 µM in the test with MKN45 cells (MKN45 cells, 7 days, MTS); 23.2 µM in the test on NCI-H1975 cells (setting [2]); 20.6 µM in the test on A549 cells (168 h, A549 cells, 7 days, MTS); 9.2 µM in the test on NCI-H1993 cells (setting [3]). Moreover, the IC50 in the test on SNU-5 cells (SNU5 cells, 7 days, MTS) turned out to be 9.3 µM.
On to `O=C(Nc1ccc(Oc2ccnc3c2OCCCN3)cc1)c1c[nH]cc(-c2ccc(F)cc2)c1=O` [Example 56, 5-(4-Fluoro-phenyl)-4-oxo-1,4-dihydro-pyridine-3-carboxylic acid [4-(6,7,8,9-tetrahydro-5-oxa-1,9-diaza-benzocyclohepten-4-yloxy)-phenyl]-amide], for which the “Activity (control) %” value on Met (h) is listed as 2%. In addition, the IC50 in the test with U87-MG cells (U87-MG cells, 7 days, MTS) turned out to be 4.7 µM; in the test on EBC-1 cells (setting [1]), 0.1 µM; in the test on MKN45 cells (MKN45 cells, 7 days, MTS), 1.2 µM; in the test with NCI-H1975 cells (setting [2]) it was 14.3 µM; with A549 cells (168 h, A549 cells, 7 days, MTS) it was 18.1 µM; in the test on NCI-H1993 cells (setting [3]), 0.7 µM. Besides, the IC50 in the test with SNU-5 cells (SNU5 cells, 7 days, MTS) turned out to be 1.7 µM.
For `O=C(Nc1ccc(Oc2ccnc3c2CCN3)c(F)c1)c1cccn(-c2ccc(F)cc2)c1=O` [Example 7, N-(4-(2,3-dihydro-1H-pyrrolo[2,3-b]pyridin-4-yloxy)-3-fluorophenyl)-1-(4-fluorophenyl)-2-oxo-1,2-dihydropyridine-3-carboxamide], on Met (h), the “Activity (control) %” value is given as 11%. The IC50 is 5.1 µM with U87-MG cells (U87-MG cells, 7 days, MTS); 9.4 µM in the test on EBC-1 cells (setting [1]); 6.7 µM in the test with MKN45 cells (MKN45 cells, 7 days, MTS); 17.8 µM with NCI-H1975 cells (setting [2]); 23.3 µM with A549 cells (168 h, A549 cells, 7 days, MTS); 4.6 µM with NCI-H1993 cells (setting [3]). Besides, the IC50 in the test on SNU-5 cells (SNU5 cells, 7 days, MTS) stood at 7.8 µM.
`Cc1c(C(=O)Nc2ccc(Oc3ccnc4c3CCN4)c(F)c2)c(=O)n(-c2ccccc2)n1C` [Example 19, N-(4-(2,3-dihydro-1H-pyrrolo[2,3-b]pyridin-4-yloxy)-3-fluorophenyl)-1,5-dimethyl-3-oxo-2-phenyl-2,3-dihydro-1H-pyrazole-4-carboxamide]: the “Activity (control) %” value at Met (h) is on record as 51%.
Turning to `O=C(Nc1ccc(Oc2ccnc3c2OCCN3)cc1)c1cccn(-c2ccc(F)cc2)c1=O` [Example 9, N-(4-(3,4-dihydro-2H-pyrido[3,2-b][1,4]oxazin-8-yloxy)phenyl)-1-(4-fluorophenyl)-2-oxo-1,2-dihydropyridine-3-carboxamide], the “Activity (control) %” value on Met (h) amounted to 6%. Besides, the IC50 in the test on U87-MG cells (U87-MG cells, 7 days, MTS) is 5.5 µM; with EBC-1 cells (setting [1]), 0.6 µM; in the test with MKN45 cells (MKN45 cells, 7 days, MTS), 1.3 µM; with NCI-H1975 cells (setting [2]) it was 8.3 µM; in the test with A549 cells (168 h, A549 cells, 7 days, MTS), 15.7 µM; in the test with NCI-H1993 cells (setting [3]) it was 7.9 µM. In the test on SNU-5 cells (SNU5 cells, 7 days, MTS), the IC50 is 2.9 µM.
